Measurements taken from patent US8686150B2 (Sanofi, priority 2011, dated 2014).

Target: T1, human full-length recombinant PKC βII (Homo sapiens, UniProt P05771)
T1 construct: Active human full-length recombinant PKC βII; purchased Invitrogen GmbH, Darmstadt, Germany
Assay: Determination of PKC βII inhibition (Caliper mobility-shift kinase assay, Fluorescein-RFARKGSLRQKNV peptide substrate)
Format: biochemical
Conditions: example compounds at a final concentration of 1.14 μM (±0.15 μM)
In short: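 Compounds were tested at 1.14 μM final. Enzyme was activated by PS, DAG and CaCl2 in Hepes pH 7.4 with MgCl2, with substrate 3 μM and ATP 120 μM as pre-mix concentrations. After 60 min at 32 °C and an EDTA stop, Caliper separation gave fractional turnover, which was normalised to no-compound and no-enzyme controls.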

T1 sequence (P05771 1-673 isoform P05771-2): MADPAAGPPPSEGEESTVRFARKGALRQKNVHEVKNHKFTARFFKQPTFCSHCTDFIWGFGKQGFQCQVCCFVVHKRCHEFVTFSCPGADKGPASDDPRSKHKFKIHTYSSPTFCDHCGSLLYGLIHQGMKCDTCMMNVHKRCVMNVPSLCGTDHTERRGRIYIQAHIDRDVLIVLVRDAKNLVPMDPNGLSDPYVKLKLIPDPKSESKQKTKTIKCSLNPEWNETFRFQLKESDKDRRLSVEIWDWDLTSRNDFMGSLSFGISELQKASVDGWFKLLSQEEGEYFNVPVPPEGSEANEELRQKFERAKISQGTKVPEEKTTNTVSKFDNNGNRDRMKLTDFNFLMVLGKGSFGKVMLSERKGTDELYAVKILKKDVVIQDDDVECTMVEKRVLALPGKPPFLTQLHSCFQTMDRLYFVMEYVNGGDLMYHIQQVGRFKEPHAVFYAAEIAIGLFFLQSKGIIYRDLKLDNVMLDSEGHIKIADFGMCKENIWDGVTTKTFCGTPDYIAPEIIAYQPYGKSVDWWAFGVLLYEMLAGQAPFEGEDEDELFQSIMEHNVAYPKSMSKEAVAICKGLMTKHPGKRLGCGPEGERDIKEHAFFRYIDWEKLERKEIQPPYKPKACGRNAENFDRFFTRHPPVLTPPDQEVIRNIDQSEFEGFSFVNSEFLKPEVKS

Row | SMILES | inhibition at 1.14 µM | % Inhibition
1 | CCc1n[nH]c2nc(-c3ccc(O)cc3)cc(C(=O)N3CC(N)C3)c12 [Example 160, (3-Amino-azetidin-1-yl)-[3-ethyl-6-(4-hydroxy-phenyl)-1H-pyrazolo[3,4-b]pyridin-4-yl]-methanone] | 49% | –
2 | Cc1n[nH]c2nc(-c3ccc(O)c(F)c3)cc(C(=O)N3CCN[C@@H](CC(C)C)C3)c12 [Example 351, [6-(3-Fluoro-4-hydroxy-phenyl)-3-methyl-1H-pyrazolo[3,4-b]pyridin-4-yl]-((S)-3-isobutyl-piperazin-1-yl)-methanone] | 88% | –
3 | Cc1n[nH]c2nc(-c3ccc(O)cc3)cc(C(=O)N3CCNC[C@@H]3C(C)C)c12 [Example 202, [6-(4-Hydroxy-phenyl)-3-methyl-1H-pyrazolo[3,4-b]pyridin-4-yl]-((S)-2-isopropyl-piperazin-1-yl)-methanone] | 101% | –
4 | Cc1n[nH]c2nc(-c3ccc(O)cc3)cc(C(=O)N3CCNC(c4ccccc4)C3)c12 (single isomer, unassigned) [Example 457, [6-(4-Hydroxy-phenyl)-3-methyl-1H-pyrazolo[3,4-b]pyridin-4-yl]-(3-phenyl-piperazin-1-yl)-methanone] | – | 63%
5 | Cc1n[nH]c2nc(-c3ccc(O)cc3)cc(C(=O)N3C[C@]4(C)CN(C)C[C@](C)(C3)C4O)c12 (stereo partly drawn) [Example 274, [6-(4-Hydroxy-phenyl)-3-methyl-1H-pyrazolo[3,4-b]pyridin-4-yl]-((1S,5R)-9-hydroxy-1,5,7-trimethyl-3,7-diaza-bicyclo[3.3.1]non-3-yl)-methanone] | 88% | –
6 | CCc1n[nH]c2nc(-c3ccc(O)cc3)cc(C(=O)N3CC4(CCNCC4)C3)c12 [Example 169, (2,7-Diaza-spiro[3.5]non-2-yl)-[3-ethyl-6-(4-hydroxy-phenyl)-1H-pyrazolo[3,4-b]pyridin-4-yl]-methanone] | 84% | –
7 | Cc1n[nH]c2nc(-c3ccc(O)cc3)cc(C(=O)N3CCNCC3c3cccc(Br)c3)c12 (centres unmarked) [Example 101, [2-(3-Bromo-phenyl)-piperazin-1-yl]-[6-(4-hydroxy-phenyl)-3-methyl-1H-pyrazolo[3,4-b]pyridin-4-yl]-methanone] | 99% | –
8 | CCc1n[nH]c2nc(-c3ccc(O)cc3)cc(C(=O)NC3CCN(C)CC3)c12 [Example 182, 3-Ethyl-6-(4-hydroxy-phenyl)-1H-pyrazolo[3,4-b]pyridine-4-carboxylic acid (1-methyl-piperidin-4-yl)-amide] | 44% | –
9 | Cc1n[nH]c2nc(-c3ccc(O)cc3)cc(C(=O)N3CCNCC3c3ccco3)c12 (centres unmarked) [Example 30, (2-Furan-2-yl-piperazin-1-yl)-[6-(4-hydroxy-phenyl)-3-methyl-1H-pyrazolo[3,4-b]pyridin-4-yl]-methanone] | 96% | –
10 | Cc1n[nH]c2nc(-c3ccc(O)cc3)cc(C(=O)N3CCNCC3(C)c3ccccc3)c12 (centres unmarked) [Example 1, [6-(4-Hydroxy-phenyl)-3-methyl-1H-pyrazolo[3,4-b]pyridin-4-yl]-(2-methyl-2-phenyl-piperazin-1-yl)-methanone] | 98% | –
11 | COc1ccccc1C1CNCCN1C(=O)c1cc(-c2ccc(O)cc2)nc2[nH]nc(C)c12 (centres unmarked) [Example 79, [6-(4-Hydroxy-phenyl)-3-methyl-1H-pyrazolo[3,4-b]pyridin-4-yl]-[2-(2-methoxy-phenyl)-piperazin-1-yl]-methanone] | 82% | –
12 | Cc1n[nH]c2nc(-c3ccc(O)cc3)cc(C(=O)NC(C)(C)C(C)(C)N)c12 [Example 134, 6-(4-Hydroxy-phenyl)-3-methyl-1H-pyrazolo[3,4-b]pyridine-4-carboxylic acid (2-amino-1,1,2-trimethyl-propyl)-amide] | 62% | –
13 | Cc1n[nH]c2nc(-c3ccc(O)cc3)cc(C(=O)N3CC[C@@H](N(C)C)C3)c12 [Example 238, ((R)-3-Dimethylamino-pyrrolidin-1-yl)-[6-(4-hydroxy-phenyl)-3-methyl-1H-pyrazolo[3,4-b]pyridin-4-yl]-methanone] | 77% | –
14 | Cc1n[nH]c2nc(-c3ccc(O)cc3)cc(C(=O)N3CCN(C(=O)c4ccoc4)CC3)c12 [Example 380, [4-(Furan-3-carbonyl)-piperazin-1-yl]-[6-(4-hydroxy-phenyl)-3-methyl-1H-pyrazolo[3,4-b]pyridin-4-yl]-methanone] | 83% | –
15 | CCC1(NC(=O)c2cc(-c3ccc(O)cc3F)nc3[nH]nc(C)c23)CCCNC1 (centres unmarked) [Example 62, 6-(2-Fluoro-4-hydroxy-phenyl)-3-methyl-1H-pyrazolo[3,4-b]pyridine-4-carboxylic acid (3-ethyl-piperidin-3-yl)-amide] | 100% | –
16 | Cc1n[nH]c2nc(-c3ccc(O)c(F)c3)cc(C(=O)N3CCNC[C@H]3Cc3ccccc3)c12 [Example 321, ((R)-2-Benzyl-piperazin-1-yl)-[6-(3-fluoro-4-hydroxy-phenyl)-3-methyl-1H-pyrazolo[3,4-b]pyridin-4-yl]-methanone] | 84% | –

Row | SMILES | inhibition at 1.14 µM | % Inhibition
17 | Cc1n[nH]c2nc(-c3ccc(O)c(F)c3)cc(C(=O)NCC3CCC(=O)N3)c12 (centres unmarked) [Example 359, 6-(3-Fluoro-4-hydroxy-phenyl)-3-methyl-1H-pyrazolo[3,4-b]pyridine-4-carboxylic acid (5-oxo-pyrrolidin-2-ylmethyl)-amide] | 36% | –
18 | Cc1n[nH]c2nc(-c3ccc(O)cc3)cc(C(=O)NC3CCN(Cc4ccccc4)CC3)c12 [Example 392, 6-(4-Hydroxy-phenyl)-3-methyl-1H-pyrazolo[3,4-b]pyridine-4-carboxylic acid (1-benzyl-piperidin-4-yl)-amide] | 49% | –
19 | COC(=O)[C@H]1CN(C(=O)c2cc(-c3ccc(O)cc3)nc3[nH]nc(C)c23)CCN1 [Example 211, (R)-4-[6-(4-Hydroxy-phenyl)-3-methyl-1H-pyrazolo[3,4-b]pyridine-4-carbonyl]-piperazine-2-carboxylic acid methyl ester] | 64% | –
20 | CCCC[C@H]1CN(C(=O)c2cc(-c3ccc(O)cc3)nc3[nH]nc(C)c23)CCN1 [Example 209, ((S)-3-Butyl-piperazin-1-yl)-[6-(4-hydroxy-phenyl)-3-methyl-1H-pyrazolo[3,4-b]pyridin-4-yl]-methanone] | 97% | –
21 | Cc1n[nH]c2nc(-c3ccc(O)cc3)cc(C(=O)N3CC(C)NCC3c3ccccc3)c12 (centres unmarked) [Example 70, [6-(4-Hydroxy-phenyl)-3-methyl-1H-pyrazolo[3,4-b]pyridin-4-yl]-(5-methyl-2-phenyl-piperazin-1-yl)-methanone] | 92% | –
22 | Cc1n[nH]c2nc(-c3ccc(O)cc3)cc(C(=O)N3CCNCC3c3c(F)cccc3F)c12 (centres unmarked) [Example 100, [2-(2,6-Difluoro-phenyl)-piperazin-1-yl]-[6-(4-hydroxy-phenyl)-3-methyl-1H-pyrazolo[3,4-b]pyridin-4-yl]-methanone] | 96% | –
23 | O=C(c1cc(-c2ccc(O)cc2)nc2[nH]nc(C3CC3)c12)N1CCNC[C@H]1c1ccccc1 [Example 158, [3-Cyclopropyl-6-(4-hydroxy-phenyl)-1H-pyrazolo[3,4-b]pyridin-4-yl]-((R)-2-phenyl-piperazin-1-yl)-methanone] | 78% | –
24 | Cc1n[nH]c2nc(-c3ccc(O)cc3)cc(C(=O)NC3CC4CCC(C3)N4C)c12 [Example 201, 6-(4-Hydroxy-phenyl)-3-methyl-1H-pyrazolo[3,4-b]pyridine-4-carboxylic acid ((3R)-8-methyl-8-aza-bicyclo[3.2.1]oct-3-yl)-amide] | – | 55%
25 | CCC1CN(C(=O)c2cc(-c3ccc(O)cc3F)nc3[nH]nc(C)c23)C(CC)CN1 (centres unmarked) [Example 445, (2,5-Diethyl-piperazin-1-yl)-[6-(2-fluoro-4-hydroxy-phenyl)-3-methyl-1H-pyrazolo[3,4-b]pyridin-4-yl]-methanone] | 99% | –
26 | CCc1n[nH]c2nc(-c3ccc(O)cc3)cc(C(=O)NC3CC4(CCNCC4)c4ccccc43)c12 (centres unmarked) [Example 181, 3-Ethyl-6-(4-hydroxy-phenyl)-1H-pyrazolo[3,4-b]pyridine-4-carboxylic acid (2,3-dihydrospiro[1H-indene-1,4′-piperidin]-3-yl)-amide] | 77% | –
27 | CCN1CCCN(C(=O)c2cc(-c3ccc(O)c(F)c3)nc3[nH]nc(C)c23)CC1 [Example 366, (4-Ethyl-[1,4]diazepan-1-yl)-[6-(3-fluoro-4-hydroxy-phenyl)-3-methyl-1H-pyrazolo[3,4-b]pyridin-4-yl]-methanone] | 47% | –
28 | Cc1n[nH]c2nc(-c3ccc(O)cc3)cc(C(=O)N3CCNC(C)C3C)c12 (centres unmarked) [Example 194, (2,3-Dimethyl-piperazin-1-yl)-[6-(4-hydroxy-phenyl)-3-methyl-1H-pyrazolo[3,4-b]pyridin-4-yl]-methanone] | 99% | –
29 | CCc1n[nH]c2nc(-c3ccc(O)cc3)cc(C(=O)N3CCNCC3)c12 [Example 3, [3-Ethyl-6-(4-hydroxy-phenyl)-1H-pyrazolo[3,4-b]pyridin-4-yl]-piperazin-1-yl-methanone] | 82% | –
30 | Cc1n[nH]c2nc(-c3ccc(O)cc3)cc(C(=O)NC(CN3CCCC3)c3ccccc3)c12 (centres unmarked) [Example 377, 6-(4-Hydroxy-phenyl)-3-methyl-1H-pyrazolo[3,4-b]pyridine-4-carboxylic acid (1-phenyl-2-pyrrolidin-1-yl-ethyl)-amide] | 69% | –
31 | Cc1cc(O)ccc1-c1cc(C(=O)N2CCNC[C@@H]2c2cccc(F)c2)c2c(C)n[nH]c2n1 [Example 141, [(S)-2-(3-Fluoro-phenyl)-piperazin-1-yl]-[6-(4-hydroxy-2-methyl-phenyl)-3-methyl-1H-pyrazolo[3,4-b]pyridin-4-yl]-methanone] | 98% | –
32 | Cc1n[nH]c2nc(-c3ccc(O)cc3F)cc(C(=O)N3CCNCC3)c12 [Example 11, [6-(2-Fluoro-4-hydroxy-phenyl)-3-methyl-1H-pyrazolo[3,4-b]pyridin-4-yl]-piperazin-1-yl-methanone] | 101% | –
